From PMC9611297, “Design, Synthesis, Anticancer Activity and Molecular Docking of New 1,2,3-Triazole-Based Glycosides Bearing 1,3,4-Thiadiazolyl, Indolyl and Arylacetamide Scaffolds” (Molecules, 2022)
Where two headings read alike, the source gives them in different places.

Key:
HER-2 = HER-2 (Homo sapiens, UniProt P04626); assay: HER-2 kinase inhibition (HTRF assay); type: biochemical; conditions: ATP 1.65 μM, 30 min, room temperature, read-out: IC50 (Mean ± SEM) (µM) HER-2 (converted)
Experimental: (§1) A homogeneous time-resolved fluorescence (HTRF) assay was applied in this test (Sigma). […] The assay was conducted for 30 min at room temperature. The reaction was stopped by the addition of detection reagents that contained EDTA. […] Three independent experiments were performed for each concentration.

[1] = system: MCF-7 (human breast adenocarcinoma) cell line; assay: MTT cytotoxicity assay, MCF-7; conditions: read-out: IC50 (µM) ± SD MCF-7
Experimental: (§3) This test is based on MTT cleavage by mitochondrial dehydrogenases from viable cells [50, 51, 52]. […] After incubation, the media were removed, and 40 µL of MTT (2.5 mg mL^−1) was added to each well. Incubation was resumed for an additional 4 h. The purple formazan dye crystals were solubilized with 200 µL DMSO. Absorbance was measured at 590 nm in a Spectra Max Paradigm Multi-Mode microplate reader (Molecular Devices, LLC, San Jose, CA, USA). Relative cell viability was expressed as the mean percentage of viable cells compared to the untreated control cells.
(§4) All experiments were conducted in triplicate and repeated on three different days. All values are reported as mean ± SD. IC50 values were determined by SPSS Inc. probit analysis (IBM Corp., Armonk, NY, USA).

EGFR^WT = EGFR^WT (Homo sapiens, UniProt P00533); assay: EGFR^WT kinase inhibition (HTRF assay); type: biochemical; conditions: ATP 1.65 μM, 30 min, room temperature, read-out: IC50 (Mean ± SEM) (µM) EGFR^WT
EGFR^WT, sequence (P00533 25-1210): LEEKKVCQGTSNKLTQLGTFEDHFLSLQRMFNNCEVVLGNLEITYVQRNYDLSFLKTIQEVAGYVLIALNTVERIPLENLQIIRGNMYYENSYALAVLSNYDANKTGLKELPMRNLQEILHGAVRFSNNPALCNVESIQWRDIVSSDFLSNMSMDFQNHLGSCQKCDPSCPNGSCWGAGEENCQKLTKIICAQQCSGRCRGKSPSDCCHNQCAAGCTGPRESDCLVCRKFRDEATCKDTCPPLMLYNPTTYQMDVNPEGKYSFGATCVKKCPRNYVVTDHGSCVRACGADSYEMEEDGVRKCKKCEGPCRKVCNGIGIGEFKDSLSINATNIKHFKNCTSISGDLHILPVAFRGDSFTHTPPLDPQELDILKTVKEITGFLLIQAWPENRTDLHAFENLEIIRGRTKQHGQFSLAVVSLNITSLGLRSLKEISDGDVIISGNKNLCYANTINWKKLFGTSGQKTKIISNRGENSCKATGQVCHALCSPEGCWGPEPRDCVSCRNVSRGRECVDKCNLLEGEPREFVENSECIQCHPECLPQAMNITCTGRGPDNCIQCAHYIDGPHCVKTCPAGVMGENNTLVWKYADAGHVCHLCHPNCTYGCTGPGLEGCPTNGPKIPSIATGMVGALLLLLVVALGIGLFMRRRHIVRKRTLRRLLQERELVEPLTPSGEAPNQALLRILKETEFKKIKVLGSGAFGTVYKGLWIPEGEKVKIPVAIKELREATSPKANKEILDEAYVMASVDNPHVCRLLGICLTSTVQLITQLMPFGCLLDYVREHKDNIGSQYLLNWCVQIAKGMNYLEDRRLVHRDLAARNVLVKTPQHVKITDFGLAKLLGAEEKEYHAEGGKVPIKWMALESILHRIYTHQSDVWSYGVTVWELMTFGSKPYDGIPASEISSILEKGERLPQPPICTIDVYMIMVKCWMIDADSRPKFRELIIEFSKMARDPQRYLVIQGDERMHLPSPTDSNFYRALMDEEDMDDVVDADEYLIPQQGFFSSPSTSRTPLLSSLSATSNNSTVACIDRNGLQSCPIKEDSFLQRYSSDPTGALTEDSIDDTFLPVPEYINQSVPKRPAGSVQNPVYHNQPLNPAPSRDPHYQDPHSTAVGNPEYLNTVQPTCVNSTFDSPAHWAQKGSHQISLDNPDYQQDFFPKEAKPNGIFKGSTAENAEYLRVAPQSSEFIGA
Experimental: as §1

MCF-7 cells [2] = assay: Cell cycle analysis (PI staining, flow cytometry); type: cell-based, human; conditions: MCF-7, 24 h treatment; for cell accumulation at sub-G1 phase (%pre G): untreated 1.99%; for cell accumulation at S phase (%DIP S): untreated 33.85%
Experimental: Moreover, the cessation of cell division at cell cycle checkpoints is considered one of the main roles of anticancer therapeutics.
(§2) Apoptosis investigation and cell cycle analysis were performed by flow cytometry. MCF-7 cells were seeded at 8 × 10^4 and incubated at 37 °C in 5% CO2 overnight. After treatment with the tested compounds 7 and 15 for 24 h, cell pellets were collected and centrifuged (300 g, 5 min). For cell cycle analysis, cell pellets were fixed with 70% ethanol on ice for 15 min and collected again. The pellets were incubated with propidium iodide (PI) staining solution at room temperature for 1 h and analyzed with a Gallios flow cytometer (Beckman Coulter, Brea, CA, USA). Apoptosis detection was carried out by the FITC AnnexinV/PI commercial kit (Becton Dickenson, Franklin Lakes, NJ, USA) following the manufacturer’s protocol. The samples were analyzed by fluorescence-activated cell sorting (FACS) with a Gallios flow cytometer (Beckman Coulter, Brea, CA, USA) within 1 h after staining. Data were analyzed using Kaluza v 1.2 (Beckman Coulter).

EGFR^T790M = EGFR^T790M (Homo sapiens, UniProt P00533, T790M); assay: EGFR^T790M kinase inhibition (HTRF assay); type: biochemical; conditions: ATP 1.65 μM, 30 min, room temperature, read-out: IC50 (Mean ± SEM) (µM) EGFR^T790M
EGFR^T790M, sequence (P00533 25-1210 T790M): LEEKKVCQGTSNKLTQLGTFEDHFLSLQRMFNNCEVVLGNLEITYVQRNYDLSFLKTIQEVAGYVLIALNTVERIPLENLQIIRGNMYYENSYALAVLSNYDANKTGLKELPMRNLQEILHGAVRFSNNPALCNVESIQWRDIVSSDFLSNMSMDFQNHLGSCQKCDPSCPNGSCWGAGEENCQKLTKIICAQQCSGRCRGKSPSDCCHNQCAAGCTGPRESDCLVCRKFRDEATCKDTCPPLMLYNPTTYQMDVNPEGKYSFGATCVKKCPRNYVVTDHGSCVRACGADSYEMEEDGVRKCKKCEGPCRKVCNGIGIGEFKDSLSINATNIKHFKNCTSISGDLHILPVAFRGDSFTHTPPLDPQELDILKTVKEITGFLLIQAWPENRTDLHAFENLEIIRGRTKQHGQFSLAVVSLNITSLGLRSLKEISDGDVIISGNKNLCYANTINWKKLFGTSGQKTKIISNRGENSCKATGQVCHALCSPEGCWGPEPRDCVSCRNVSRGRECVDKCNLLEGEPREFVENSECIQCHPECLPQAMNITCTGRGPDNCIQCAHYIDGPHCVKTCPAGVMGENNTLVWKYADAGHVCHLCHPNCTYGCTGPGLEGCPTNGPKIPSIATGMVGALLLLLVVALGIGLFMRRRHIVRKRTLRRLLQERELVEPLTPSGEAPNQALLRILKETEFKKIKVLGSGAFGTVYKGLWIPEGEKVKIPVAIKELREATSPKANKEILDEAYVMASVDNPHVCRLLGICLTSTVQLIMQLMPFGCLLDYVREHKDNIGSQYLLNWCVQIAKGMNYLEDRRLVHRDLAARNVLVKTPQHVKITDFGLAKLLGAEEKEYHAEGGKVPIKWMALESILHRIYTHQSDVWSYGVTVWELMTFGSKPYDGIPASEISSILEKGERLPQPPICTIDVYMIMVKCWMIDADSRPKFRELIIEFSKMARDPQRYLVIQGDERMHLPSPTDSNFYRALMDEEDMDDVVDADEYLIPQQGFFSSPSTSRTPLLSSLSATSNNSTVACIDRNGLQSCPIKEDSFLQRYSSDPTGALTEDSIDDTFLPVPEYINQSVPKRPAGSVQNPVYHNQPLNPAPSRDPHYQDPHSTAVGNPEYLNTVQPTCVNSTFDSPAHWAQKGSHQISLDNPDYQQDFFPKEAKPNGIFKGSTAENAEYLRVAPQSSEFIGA
Experimental: as §1

[3] = system: HCT-116 (human colorectal carcinoma) cell line; assay: MTT cytotoxicity assay, HCT-116; conditions: read-out: IC50 (µM) ± SD HCT-116
Experimental: as §3, §4

MCF-7 cells [4] = assay: Annexin V/PI apoptosis detection by flow cytometry; type: cell-based, human; conditions: MCF-7, 24 h, at IC50 concentration (7: 0.5 μM; 15: 0.6 μM); for Apoptosis Late: control 0.28%; for Apoptosis Early: control 0.46%; for Necrosis: control 1.25%; for Apoptosis Total: control 1.99
Experimental: The proportion of late apoptosis obtained with compounds 7 and 15 was higher than that of the early phase, leading to the induction of apoptosis and confirming the effectiveness of these derivatives in cancer therapy.
as §2

[5] = MTT assay, 48 h incubation, mean ± SD

HER-2, sequence (P04626 23-1255): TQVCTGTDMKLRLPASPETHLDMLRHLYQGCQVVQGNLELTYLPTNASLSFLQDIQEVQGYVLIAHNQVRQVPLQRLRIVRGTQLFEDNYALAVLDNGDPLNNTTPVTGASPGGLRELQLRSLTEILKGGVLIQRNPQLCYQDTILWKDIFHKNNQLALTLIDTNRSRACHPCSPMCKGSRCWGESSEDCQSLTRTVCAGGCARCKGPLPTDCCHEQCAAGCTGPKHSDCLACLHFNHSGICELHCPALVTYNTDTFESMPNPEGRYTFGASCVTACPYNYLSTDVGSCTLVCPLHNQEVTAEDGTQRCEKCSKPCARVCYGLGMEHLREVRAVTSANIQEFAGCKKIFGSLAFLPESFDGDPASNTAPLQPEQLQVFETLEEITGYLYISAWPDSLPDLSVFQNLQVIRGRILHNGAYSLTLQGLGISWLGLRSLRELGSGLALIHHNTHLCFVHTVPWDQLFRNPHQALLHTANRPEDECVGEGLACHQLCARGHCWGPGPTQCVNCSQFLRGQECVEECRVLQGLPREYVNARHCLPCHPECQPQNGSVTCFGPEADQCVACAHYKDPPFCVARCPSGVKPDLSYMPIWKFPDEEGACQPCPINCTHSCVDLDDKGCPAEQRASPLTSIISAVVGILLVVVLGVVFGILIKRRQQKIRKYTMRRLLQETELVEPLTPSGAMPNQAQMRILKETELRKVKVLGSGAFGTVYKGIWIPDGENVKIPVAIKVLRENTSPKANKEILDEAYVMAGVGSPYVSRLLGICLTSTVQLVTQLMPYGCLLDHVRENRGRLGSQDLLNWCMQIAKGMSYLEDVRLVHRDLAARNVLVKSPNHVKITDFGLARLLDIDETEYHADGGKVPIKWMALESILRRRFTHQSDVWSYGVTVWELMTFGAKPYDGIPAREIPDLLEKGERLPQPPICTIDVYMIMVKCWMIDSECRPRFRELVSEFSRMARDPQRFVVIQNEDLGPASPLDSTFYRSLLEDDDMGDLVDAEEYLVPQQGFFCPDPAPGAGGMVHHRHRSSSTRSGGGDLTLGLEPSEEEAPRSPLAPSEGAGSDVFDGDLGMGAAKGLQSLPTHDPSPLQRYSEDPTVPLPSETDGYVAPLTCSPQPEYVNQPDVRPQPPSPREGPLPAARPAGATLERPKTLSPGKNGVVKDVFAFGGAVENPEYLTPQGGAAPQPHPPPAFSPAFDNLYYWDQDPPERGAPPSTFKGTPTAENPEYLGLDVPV

| melting point | Compound | IC50 ([1]; Homo sapiens, MCF7, 48 h) | IC50 ([3]; Homo sapiens, HCT-116, 48 h) | also measured |
| --- | --- | --- | --- | --- |
| 210 to 213 °C | CCn1cc(C=Nc2nnc(SCCn3cc(CO[C@@H]4O[C@H](CO)[C@@H](O)[C@H](O)[C@H]4O)nn3)s2)c2ccccc21 [Compound 7, 1-(1-Ethyl-1H-indol-3-yl)-N-(5-((2-(4-({[β-D-glucopyranosyl]oxy}methyl)-1H-1,2,3-triazol-1-yl)ethyl)thio)-1,3,4-thiadiazol-2-yl)methanimine] | 0.5 µM | 15.5 ± 0.2 µM | IC50 (HER-2): 2.25 ± 0.3 µM; IC50 (EGFR^WT): 0.3 ± 0.01 µM; cell accumulation at sub-G1 phase (%pre G) (MCF-7 cells [2]): 34.61%; cell accumulation at S phase (%DIP S) (MCF-7 cells [2]): 43.51%; IC50 (EGFR^T790M): 1.12 ± 0.55 µM; Apoptosis Late (MCF-7 cells [4]): 18.81%; Apoptosis Early (MCF-7 cells [4]): 4.39%; Necrosis (MCF-7 cells [4]): 11.41%; Apoptosis Total (MCF-7 cells [4]): 34.61% |
| 98 to 99 °C | CC(=O)OC[C@H]1O[C@@H](OCc2cn(CC(=O)Nc3ccc(C)cc3)nn2)[C@H](OC(C)=O)[C@@H](OC(C)=O)[C@H]1OC(C)=O [Compound 12, 2-(4-({[2,3,4,6-Tetra-O-acetyl-β-D-galactopyranosyl]oxy}methyl)-1H-1,2,3-triazol-1-yl)-N-(p-tolyl)acetamide] | 5.7 ± 0.1 µM | 2.2 ± 0.1 µM | IC50 (HER-2): 18.4 µM; IC50 (EGFR^WT): 12.7 ± 0.15 µM; IC50 (EGFR^T790M): 15.2 ± 0.2 µM |
| 142 to 144 °C | CC(=O)O[C@@H]1[C@@H](OC(C)=O)[C@H](OCc2cn(CC(=O)Nc3ccc(F)cc3)nn2)OC[C@H]1OC(C)=O [Compound 13, 2-(4-({[2,3,4-Tri-O-acetyl-β-D-xylopyranosyl]oxy}methyl)-1H-1,2,3-triazol-1-yl)-N-(4-fluorophenyl)acetamide] | 34.4 ± 0.4 µM | 38.2 ± 0.5 µM |  |
| 101 to 102 °C | CCn1cc(C=Nc2nnc(SCCN=[N+]=[N-])s2)c2ccccc21 [Compound 3, N-(5-((2-Azidoethyl)thio)-1,3,4-thiadiazol-2-yl)-1-(1-ethyl-1H-indol-3-yl)methanimine] | 1.1 ± 0.1 µM | 30.8 ± 0.4 µM |  |
|  | CCn1cc(/C=N\c2nnc(S)s2)c2ccccc21 [Compound 1] | 18.1 ± 0.2 µM | 46.9 ± 0.5 µM |  |
| 199 to 200 °C | Cc1ccc(NC(=O)Cn2cc(CO[C@@H]3O[C@H](CO)[C@H](O)[C@H](O)[C@H]3O)nn2)cc1 [Compound 16, 2-(4-({[β-D-Galactopyranosyl]oxy}methyl)-1H-1,2,3-triazol-1-yl)-N-(p-tolyl)acetamide] | 20.3 ± 0.9 µM | 35.7 ± 0.4 µM |  |
|  | CC(=O)OC[C@H]1O[C@@H](OCc2cn(CC(=O)Nc3ccc(F)cc3)nn2)[C@H](OC(C)=O)[C@@H](OC(C)=O)[C@H]1OC(C)=O [Compound 14, 2-(4-({[2,3,4,6-Tetra-O-acetyl-β-D-galactopyranosyl]oxy}methyl)-1H-1,2,3-triazol-1-yl)-N-(4-fluorophenyl)acetamide] | 35.3 ± 0.3 µM | 33.8 ± 0.3 µM |  |
| 203 to 204 °C | CCn1cc(C=Nc2nnc(SCCn3cc(CO[C@@H]4OC[C@@H](O)[C@H](O)[C@H]4O)nn3)s2)c2ccccc21 [Compound 8, 1-(1-Ethyl-1H-indol-3-yl)-N-(5-((2-(4-({[β-D-Xylopyranosyl]oxy}methyl)-1H-1,2,3-triazol-1-yl)ethyl)thio)-1,3,4-thiadiazol-2-yl)methanimine] | 4.2 ± 0.1 µM | 4.6 ± 0.1 µM | IC50 (HER-2): 2.77 ± 0.13 µM; IC50 (EGFR^WT): 0.38 ± 0.05 µM; IC50 (EGFR^T790M): 1.95 ± 0.02 µM |
| 95 to 96 °C | CC(=O)O[C@@H]1[C@@H](OC(C)=O)[C@H](OCc2cn(CC(=O)Nc3ccc(C)cc3)nn2)OC[C@H]1OC(C)=O [Compound 11, 2-(4-({[2,3,4-Tri-O-acetyl-β-D-xylopyranosyl]oxy}methyl)-1H-1,2,3-triazol-1-yl)-N-(p-tolyl)acetamide] | 0.8 µM | 15.4 ± 0.2 µM | IC50 (HER-2): 8.6 ± 0.2 µM; IC50 (EGFR^WT): 6.45 ± 0.1 µM; IC50 (EGFR^T790M): 11.8 ± 0.05 µM |
| 197 to 198 °C | O=C(Cn1cc(CO[C@@H]2OC[C@@H](O)[C@H](O)[C@H]2O)nn1)Nc1ccc(F)cc1 [Compound 17, 2-(4-({[β-D-Xylopyranosyl]oxy}methyl)-1H-1,2,3-triazol-1-yl)-N-(4-fluorophenyl)acetamide] | 30.1 ± 0.4 µM | 26.5 ± 0.3 µM |  |
| 131 to 132 °C | CCn1cc(C=Nc2nnc(SCCn3cc(CO[C@@H]4O[C@H](COC(C)=O)[C@@H](OC(C)=O)[C@H](OC(C)=O)[C@H]4OC(C)=O)nn3)s2)c2ccccc21 [Compound 5, 1-(1-Ethyl-1H-indol-3-yl)-N-(5-((2-(4-({[2,3,4,6-tetra-O-acetyl-β-D-glucopyranosyl]oxy}methyl)-1H-1,2,3-triazol-1-yl)ethyl)thio)-1,3,4-thiadiazol-2-yl)methanimine] | 13.9 ± 0.2 µM | 22.6 ± 0.2 µM |  |
| 193 to 194 °C | Cc1ccc(NC(=O)Cn2cc(CO[C@@H]3OC[C@@H](O)[C@H](O)[C@H]3O)nn2)cc1 [Compound 15, 2-(4-({[β-D-Xylopyranosyl]oxy}methyl)-1H-1,2,3-triazol-1-yl)-N-(p-tolyl)acetamide] | 0.6 µM | 11.4 ± 0.3 µM | IC50 (HER-2): 2.18 ± 0.42 µM; IC50 (EGFR^WT): 0.21 ± 0.05 µM; cell accumulation at sub-G1 phase (%pre G) (MCF-7 cells [2]): 42.45%; cell accumulation at S phase (%DIP S) (MCF-7 cells [2]): 52.08%; IC50 (EGFR^T790M): 1.5 ± 0.11 µM; Apoptosis Late (MCF-7 cells [4]): 25.48%; Apoptosis Early (MCF-7 cells [4]): 2.69%; Necrosis (MCF-7 cells [4]): 14.28%; Apoptosis Total (MCF-7 cells [4]): 42.45% |
| 136 to 138 °C | CCn1cc(C=Nc2nnc(SCCn3cc(CO[C@@H]4OC[C@@H](OC(C)=O)[C@H](OC(C)=O)[C@H]4OC(C)=O)nn3)s2)c2ccccc21 [Compound 6, 1-(1-Ethyl-1H-indol-3-yl)-N-(5-((2-(4-({[2,3,4-tri-O-acetyl-β-D-xylopyranos-yl]oxy}methyl)-1H-1,2,3-triazol-1-yl)ethyl)thio)-1,3,4-thiadiazol-2-yl)methanimine] | 10.8 ± 1.5 µM | 20.8 ± 0.2 µM |  |
|  | Cc1ccc(NC(=O)CN=[N+]=[N-])cc1 [Compound 9a] | 24.1 ± 0.3 µM | 42.3 ± 0.6 µM |  |
|  | COc1cccc2c1C(=O)c1c(O)c3c(c(O)c1C2=O)C[C@@](O)(C(=O)CO)C[C@@H]3O[C@H]1C[C@H](N)[C@H](O)[C@H](C)O1 [Doxorubicin, reference compound] | 9.4 ± 0.1 µM | 12.1 ± 0.2 µM |  |
|  | O=C(Cn1cc(CO[C@@H]2O[C@H](CO)[C@H](O)[C@H](O)[C@H]2O)nn1)Nc1ccc(F)cc1 [Compound 18, 2-(4-({[β-D-Galactopyranosyl]oxy}methyl)-1H-1,2,3-triazol-1-yl)-N-(4-fluorophenyl)acetamide] | 31.6 ± 0.5 µM | 28.8 ± 0.1 µM |  |
|  | [N-]=[N+]=NCC(=O)Nc1ccc(F)cc1 [Compound 9b] | 26.4 ± 0.3 µM | 33.3 ± 0.4 µM |  |

| Compound | melting point | IC50 ([1]; Homo sapiens, MCF7, 48 h) | IC50 ([3]; Homo sapiens, HCT-116, 48 h) | also measured |
| --- | --- | --- | --- | --- |
| CCn1cc(C=Nc2nnc(SCCBr)s2)c2ccccc21 [Compound 2, N-(5-((2-Bromoethyl)thio)-1,3,4-thiadiazol-2-yl)-1-(1-ethyl-1H-indol-3-yl)methanimine] | 90 to 92 °C |  |  | IC50 [1, 5]: 14.1 ± 0.3 µM; IC50 [3, 5]: 52.7 ± 0.6 µM |
